According to ChEMBL document CHEMBL1743141, “Membrane transporters in drug development” (Nat Rev Drug Discov, 2010):

Key:
Assay type in all cases: ADME
[1] = target: T1, Solute carrier family 22 member 6 (Homo sapiens, UniProt Q4U2R8); experiment: Substrates of transporters of clinical importance in the absorption and disposition of drugs, OAT1
T1 sequence (Q4U2R8 whole entry): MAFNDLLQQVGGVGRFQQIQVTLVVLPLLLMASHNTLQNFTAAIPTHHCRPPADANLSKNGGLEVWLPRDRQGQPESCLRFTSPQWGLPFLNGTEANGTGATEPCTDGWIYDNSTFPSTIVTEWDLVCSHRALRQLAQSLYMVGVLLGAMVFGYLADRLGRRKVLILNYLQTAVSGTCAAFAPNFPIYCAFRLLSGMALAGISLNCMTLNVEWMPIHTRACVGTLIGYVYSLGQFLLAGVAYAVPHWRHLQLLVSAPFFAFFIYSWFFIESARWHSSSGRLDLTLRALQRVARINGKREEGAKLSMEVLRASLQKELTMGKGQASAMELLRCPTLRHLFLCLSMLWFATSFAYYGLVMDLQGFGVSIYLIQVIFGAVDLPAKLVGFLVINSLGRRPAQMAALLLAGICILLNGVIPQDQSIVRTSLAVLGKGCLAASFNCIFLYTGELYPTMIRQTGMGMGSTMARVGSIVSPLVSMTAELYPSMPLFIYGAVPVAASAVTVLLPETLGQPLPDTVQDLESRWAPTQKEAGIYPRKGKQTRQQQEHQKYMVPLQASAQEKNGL

[2] = target: T2, ATP-binding cassette sub-family C member 4 (Homo sapiens, UniProt O15439); experiment: Substrates of transporters of clinical importance in the absorption and disposition of drugs, MRP4
T2 sequence (O15439 whole entry): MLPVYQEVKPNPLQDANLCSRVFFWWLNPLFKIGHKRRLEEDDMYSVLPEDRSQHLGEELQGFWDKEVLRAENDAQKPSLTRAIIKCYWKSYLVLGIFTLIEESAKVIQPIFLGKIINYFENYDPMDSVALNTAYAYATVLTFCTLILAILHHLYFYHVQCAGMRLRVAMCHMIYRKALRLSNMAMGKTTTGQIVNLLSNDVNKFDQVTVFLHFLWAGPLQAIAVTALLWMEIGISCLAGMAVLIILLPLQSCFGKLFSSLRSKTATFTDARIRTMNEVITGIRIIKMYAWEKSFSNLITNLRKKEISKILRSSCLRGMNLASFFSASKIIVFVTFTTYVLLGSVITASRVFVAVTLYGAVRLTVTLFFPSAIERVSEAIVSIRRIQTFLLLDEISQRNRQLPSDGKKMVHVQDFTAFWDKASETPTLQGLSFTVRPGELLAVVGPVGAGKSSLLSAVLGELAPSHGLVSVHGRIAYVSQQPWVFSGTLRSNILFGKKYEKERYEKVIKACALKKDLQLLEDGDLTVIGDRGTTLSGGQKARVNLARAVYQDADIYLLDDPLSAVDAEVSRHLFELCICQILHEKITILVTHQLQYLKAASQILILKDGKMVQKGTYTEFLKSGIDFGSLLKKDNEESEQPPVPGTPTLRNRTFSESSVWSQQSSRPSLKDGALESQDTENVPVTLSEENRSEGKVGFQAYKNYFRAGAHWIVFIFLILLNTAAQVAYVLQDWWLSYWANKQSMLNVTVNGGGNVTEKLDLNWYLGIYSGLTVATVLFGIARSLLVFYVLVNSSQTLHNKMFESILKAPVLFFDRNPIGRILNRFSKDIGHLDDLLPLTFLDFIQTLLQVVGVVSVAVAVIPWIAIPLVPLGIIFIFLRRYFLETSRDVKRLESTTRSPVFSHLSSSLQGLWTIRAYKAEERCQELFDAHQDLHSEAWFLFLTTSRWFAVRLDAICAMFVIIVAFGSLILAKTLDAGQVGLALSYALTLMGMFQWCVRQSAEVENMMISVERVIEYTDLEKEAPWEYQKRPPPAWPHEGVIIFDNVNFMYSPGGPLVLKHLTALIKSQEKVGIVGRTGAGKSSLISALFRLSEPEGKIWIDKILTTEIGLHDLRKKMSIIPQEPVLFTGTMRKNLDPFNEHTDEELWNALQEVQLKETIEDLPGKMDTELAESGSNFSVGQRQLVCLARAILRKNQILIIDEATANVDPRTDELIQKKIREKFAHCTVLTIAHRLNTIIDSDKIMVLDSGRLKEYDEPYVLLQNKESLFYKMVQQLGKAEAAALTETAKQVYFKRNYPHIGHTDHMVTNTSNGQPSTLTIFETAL

[3] = target: T3, Organic anion transporter 3 (Homo sapiens, UniProt Q8TCC7); experiment: Substrates of transporters of clinical importance in the absorption and disposition of drugs, OAT3
T3 sequence (Q8TCC7 whole entry): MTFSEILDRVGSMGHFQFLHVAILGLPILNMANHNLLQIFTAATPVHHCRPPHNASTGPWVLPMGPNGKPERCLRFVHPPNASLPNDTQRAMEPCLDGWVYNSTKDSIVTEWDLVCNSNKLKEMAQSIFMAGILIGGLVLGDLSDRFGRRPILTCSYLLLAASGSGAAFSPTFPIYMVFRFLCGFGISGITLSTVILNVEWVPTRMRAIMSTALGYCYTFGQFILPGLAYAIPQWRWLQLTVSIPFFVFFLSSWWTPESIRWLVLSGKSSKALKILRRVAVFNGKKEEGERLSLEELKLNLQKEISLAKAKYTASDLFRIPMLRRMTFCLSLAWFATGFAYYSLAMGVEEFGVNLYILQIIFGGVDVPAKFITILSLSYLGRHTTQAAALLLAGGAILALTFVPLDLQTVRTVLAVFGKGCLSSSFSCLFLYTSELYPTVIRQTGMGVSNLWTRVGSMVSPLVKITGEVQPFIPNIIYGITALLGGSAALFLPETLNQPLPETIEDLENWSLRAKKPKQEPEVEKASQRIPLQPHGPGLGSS

[4] = target: T4, Solute carrier organic anion transporter family member 2B1 (Homo sapiens, UniProt O94956); experiment: Substrates of transporters of clinical importance in the absorption and disposition of drugs, OATP2B1
T4 sequence (O94956 whole entry): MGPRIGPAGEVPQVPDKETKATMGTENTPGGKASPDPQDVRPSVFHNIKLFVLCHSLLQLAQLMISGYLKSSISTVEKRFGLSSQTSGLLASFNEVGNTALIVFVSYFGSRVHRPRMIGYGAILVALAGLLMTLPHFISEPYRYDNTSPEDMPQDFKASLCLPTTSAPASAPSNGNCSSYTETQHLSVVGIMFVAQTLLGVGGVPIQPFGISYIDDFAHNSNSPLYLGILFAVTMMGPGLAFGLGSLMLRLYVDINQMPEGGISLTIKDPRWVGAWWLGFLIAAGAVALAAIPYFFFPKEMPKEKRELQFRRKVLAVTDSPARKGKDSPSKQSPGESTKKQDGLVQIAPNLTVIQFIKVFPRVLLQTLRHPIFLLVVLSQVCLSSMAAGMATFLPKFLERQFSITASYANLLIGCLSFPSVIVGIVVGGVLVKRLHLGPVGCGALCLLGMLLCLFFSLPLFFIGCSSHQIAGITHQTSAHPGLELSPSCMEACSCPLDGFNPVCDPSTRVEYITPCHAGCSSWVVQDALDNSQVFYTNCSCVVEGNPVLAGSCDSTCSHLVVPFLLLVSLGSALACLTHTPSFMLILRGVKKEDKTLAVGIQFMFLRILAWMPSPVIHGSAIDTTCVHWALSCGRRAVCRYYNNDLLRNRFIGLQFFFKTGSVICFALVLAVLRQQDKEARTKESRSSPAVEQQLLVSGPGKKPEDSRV

| Activity [1] | Activity [2] | Activity [3] | SMILES | also measured |
| --- | --- | --- | --- | --- |
| – | – | transporter substrate | CO/N=C(\C(=O)N[C@@H]1C(=O)N2C(C(=O)O)=CCS[C@H]12)c1csc(N)n1 [CEFTIZOXIME] | – |
| – | transporter substrate | transporter substrate | NS(=O)(=O)c1cc(C(=O)O)c(NCc2ccco2)cc1Cl [FUROSEMIDE] | – |
| transporter substrate | transporter substrate | – | C[C@H](Cn1cnc2c(N)ncnc21)OCP(=O)(O)O [TENOFOVIR ANHYDROUS] | – |
| transporter substrate | – | – | Nc1ccn([C@H]2CC[C@@H](CO)O2)c(=O)n1 [ZALCITABINE] | – |
| transporter substrate | – | – | Cc1cn([C@H]2C[C@H](N=[N+]=[N-])[C@@H](CO)O2)c(=O)[nH]c1=O [ZIDOVUDINE] | – |

Further lines, the compound ahead of its results:

| SMILES | Activity [1] | Activity [2] | Activity [3] | also measured |
| --- | --- | --- | --- | --- |
| Nc1ncnc2c1ncn2CCOCP(=O)(O)O [ADEFOVIR] | transporter substrate | transporter substrate | – | – |
| CCCCNc1cc(C(=O)O)cc(S(N)(=O)=O)c1Oc1ccccc1 [BUMETANIDE] | – | – | transporter substrate | – |
| N[C@@H](C(=O)N[C@@H]1C(=O)N2C(C(=O)O)=C(Cl)CS[C@H]12)c1ccccc1 [CEFACLOR ANHYDROUS] | – | – | transporter substrate | – |
| Nc1ccn(C[C@@H](CO)OCP(=O)(O)O)c(=O)n1.O.O [CIDOFOVIR] | transporter substrate | – | – | – |
| COc1ccc(Cl)cc1C(=O)NCCc1ccc(S(=O)(=O)NC(=O)NC2CCCCC2)cc1 [GLYBURIDE] | – | – | – | Activity [4]: transporter substrate |
